Reference: patent US10058495B2, “Method of making a skin care product” (The Procter & Gamble Company, priority 2014, dated 2018)
Residues, ends and D or L forms follow the SMILES beside them. *: point of attachment. Palmitoyl = CCCCCCCCCCCCCCCC(=O)*

Assay: In vivo skin penetration study #1 (Tape Stripping method), magnetic array vs finger
Parameters: species or system human
Details: for combined amount of Pal-KTTKS on tape strips, Mean: mean of the three strip groups; for combined amount of Pal-KTTKS on tape strips, Mean / combined amount of Pal-KTTKS on tape strips: in ng; for delivery of Pal-KTTKS, active compared to passive application: three test subjects
Description: An in vivo skin penetration study was conducted to establish the effect of using a skin care product of the present invention by applying a skin care composition comprising Pal-KTTKS (SEQ ID NO: 1) with an applicator comprising a magnetic array. The study compared the penetration of the Pal-KTTKS (SEQ ID NO: 1) in combination with a variety of magnetic arrays (active application) to the penetration of Pal-KTTKS (SEQ ID NO: 1) applied with a finger (passive application). Penetration of Pal-KTTKS (SEQ ID NO: 1) in this example is determined according to the Tape Stripping method. In this example, the level of Pal-KTTKS (SEQ ID NO: 1) present in the extract from each tape strip was measured using HPLC and the results normalized to the protein level measured on the tape strip.
This method provides a suitable means of measuring the amount of skin care active present in skin, and comparing active versus passive application of the skin care active. Two identical rectangular areas of 15 cm^2 are marked on the volar forearms of volunteers. A measured dose (approximately 30 mg) of the Pal-KTTKS (SEQ ID NO: 1) formulation is applied to the delineated areas using a screw actuated syringe. Active application is carried out on one of the delineated areas using the three-quarter profile of a purpose made applicator (e.g., an applicator presenting one of the magnetic arrays set forth in Table 2). Passive application is accomplished on the other delineated area using the tip of a finger in a sweeping motion identical to that of the active application. The formulation is spread evenly across the entire delineated region using a sweeping motion with a fixed speed of approximately 23 cm/s to […]. The application period is 30 seconds during which time visual inspection is used to ensure even distribution and absorption of the formulation by skin. The application area is then left uncovered for a further 30 minutes to ensure complete absorption. Tape strip samples may be collected and/or analyzed immediately after the complete absorption is ensured or after a waiting period (e.g., after multiple applications of the formulation over multiple hours or days).
The tape stripping procedure is carried out using 10 commercial pre-cut 22.1 mm tape stripping adhesive discs (e.g., D-SQUAME, available from Cuderm Corporation or equivalent) with an adhesive area of 3.8 cm^2. The 10 tape strips are applied sequentially to the same sampling site, which ideally enables each tape strip to obtain a sample from deeper within the stratum corneum than the tape strip that preceded it. A 22.1 mm diameter circular region is marked at the center of the application area. A tape stripping adhesive disc is placed over the marked area and even pressure applied using, for example, a neoprene roller, rolled ten times over the adhesive disc. The adhesive disc is removed from the skin surface in a single pulling motion using manual tweezers. To ensure even removal of the skin sample, subsequent discs are removed in a “north, south, east and west” orientation, which is within the skill of the ordinary artisan. Each adhesive disc is non-destructively analysed for protein content using a suitable instrument (e.g., SquameScan™ 850 instrument commercially available from Heiland Electronics Wetzlar, Germany, or equivalent). The adhesive disc is then immediately placed into a glass vial containing extraction solvent in preparation for subsequent analysis. Solvent extractions are conducted on each tape strip using conventional extraction methods, which are well known to those of ordinary skill in the art, and measuring the amount of Pal-KTTKS (SEQ ID NO: 1) present in the extract, for example, by high performance liquid chromatography (“HPLC”) and/or mass spectrometry.
The procedure is repeated for the remaining nine strips. An additional strip is obtained from outside the area of application of the skin care formulation to serve as a blank sample. […]

## CCCCCCCCCCCCCCCC(=O)N[C@@H](CCCCN)C(=O)N[C@H](C(=O)N[C@H](C(=O)N[C@@H](CCCCN)C(=O)N[C@@H](CO)C(=O)O)[C@@H](C)O)[C@@H](C)O [Pal-KTTKS, palmitoyl-lysine-threonine-threonine-lysine-serine] (Palmitoyl-KTTKS-OH; C-terminus assumed)
Array 4, active, Average
  combined amount of Pal-KTTKS on tape strips, Mean: 102.11
Array 4, active, subject 1, 1st test
  combined amount of Pal-KTTKS on tape strips, Mean: 144.79
Array 4, active, subject 1, 2nd test
  combined amount of Pal-KTTKS on tape strips, Mean: 96.97
Array 4, active, subject 2, 1st test
  combined amount of Pal-KTTKS on tape strips, Mean: 122.02
Array 4, active, subject 2, 2nd test
  combined amount of Pal-KTTKS on tape strips, Mean: 78.21
Array 4, active, subject 3 (2nd test of Table 7)
  combined amount of Pal-KTTKS on tape strips, Mean: 68.57
Array 4, active, strips 2-4, Average
  combined amount of Pal-KTTKS on tape strips: 108.81
Array 4, active, strips 2-4, subject 1, 1st test
  combined amount of Pal-KTTKS on tape strips: 158.48
Array 4, active, strips 2-4, subject 1, 2nd test
  combined amount of Pal-KTTKS on tape strips: 82.45
Array 4, active, strips 2-4, subject 2, 1st test
  combined amount of Pal-KTTKS on tape strips: 129.33
Array 4, active, strips 2-4, subject 2, 2nd test
  combined amount of Pal-KTTKS on tape strips: 94.10
Array 4, active, strips 2-4, subject 3 (2nd test of Table 7)
  combined amount of Pal-KTTKS on tape strips: 79.66
Array 4, active, strips 5-7, Average
  combined amount of Pal-KTTKS on tape strips: 107.95
Array 4, active, strips 5-7, subject 1, 1st test
  combined amount of Pal-KTTKS on tape strips: 154.85
Array 4, active, strips 5-7, subject 1, 2nd test
  combined amount of Pal-KTTKS on tape strips: 117.42
Array 4, active, strips 5-7, subject 2, 1st test
  combined amount of Pal-KTTKS on tape strips: 121.51
Array 4, active, strips 5-7, subject 2, 2nd test
  combined amount of Pal-KTTKS on tape strips: 73.41
Array 4, active, strips 5-7, subject 3 (2nd test of Table 7)
  combined amount of Pal-KTTKS on tape strips: 72.59
Array 4, active, strips 8-10, Average
  combined amount of Pal-KTTKS on tape strips: 89.57
Array 4, active, strips 8-10, subject 1, 1st test
  combined amount of Pal-KTTKS on tape strips: 121.04
Array 4, active, strips 8-10, subject 1, 2nd test
  combined amount of Pal-KTTKS on tape strips: 91.03
Array 4, active, strips 8-10, subject 2, 1st test
  combined amount of Pal-KTTKS on tape strips: 115.22
Array 4, active, strips 8-10, subject 2, 2nd test
  combined amount of Pal-KTTKS on tape strips: 67.12
Array 4, active, strips 8-10, subject 3 (2nd test of Table 7)
  combined amount of Pal-KTTKS on tape strips: 53.45
Array 9, active, average of subjects
  combined amount of Pal-KTTKS on tape strips, Mean: 165.57
Array 9, active, subject 1
  combined amount of Pal-KTTKS on tape strips, Mean: 154.29
Array 9, active, subject 2
  combined amount of Pal-KTTKS on tape strips, Mean: 201.48
Array 9, active, subject 3
  combined amount of Pal-KTTKS on tape strips, Mean: 140.93
Array 9, active, strips 2-4, average of subjects
  combined amount of Pal-KTTKS on tape strips: 263.02
Array 9, active, strips 2-4, subject 1
  combined amount of Pal-KTTKS on tape strips: 177.13
Array 9, active, strips 2-4, subject 2
  combined amount of Pal-KTTKS on tape strips: 440.14
Array 9, active, strips 2-4, subject 3
  combined amount of Pal-KTTKS on tape strips: 171.79
Array 9, active, strips 5-7, average of subjects
  combined amount of Pal-KTTKS on tape strips: 120.01
Array 9, active, strips 5-7, subject 1
  combined amount of Pal-KTTKS on tape strips: 131.72
Array 9, active, strips 5-7, subject 2
  combined amount of Pal-KTTKS on tape strips: 100.02
Array 9, active, strips 5-7, subject 3
  combined amount of Pal-KTTKS on tape strips: 128.29
Array 9, active, strips 8-10, average of subjects
  combined amount of Pal-KTTKS on tape strips: 113.67
Array 9, active, strips 8-10, subject 1
  combined amount of Pal-KTTKS on tape strips: 154.03
Array 9, active, strips 8-10, subject 2
  combined amount of Pal-KTTKS on tape strips: 64.27
Array 9, active, strips 8-10, subject 3
  combined amount of Pal-KTTKS on tape strips: 122.70
bi-directional magnetic array #9
  delivery of Pal-KTTKS, active compared to passive application: significant enhanced delivery
passive, comparator of array 4, Average
  combined amount of Pal-KTTKS on tape strips, Mean: 50.00
passive, comparator of array 4, subject 1, 1st test
  combined amount of Pal-KTTKS on tape strips, Mean: 59.18
passive, comparator of array 4, subject 1, 2nd test
  combined amount of Pal-KTTKS on tape strips, Mean: 42.29
passive, comparator of array 4, subject 2, 1st test
  combined amount of Pal-KTTKS on tape strips, Mean: 52.85
passive, comparator of array 4, subject 2, 2nd test
  combined amount of Pal-KTTKS on tape strips, Mean: 23.30
passive, comparator of array 4, subject 3 (2nd test of Table 8)
  combined amount of Pal-KTTKS on tape strips, Mean: 72.39
passive, comparator of array 4, strips 2-4, Average
  combined amount of Pal-KTTKS on tape strips: 70.42
passive, comparator of array 4, strips 2-4, subject 1, 1st test
  combined amount of Pal-KTTKS on tape strips: 79.94
passive, comparator of array 4, strips 2-4, subject 1, 2nd test
  combined amount of Pal-KTTKS on tape strips: 69.89
passive, comparator of array 4, strips 2-4, subject 2, 1st test
  combined amount of Pal-KTTKS on tape strips: 86.09
passive, comparator of array 4, strips 2-4, subject 2, 2nd test
  combined amount of Pal-KTTKS on tape strips: 28.02
passive, comparator of array 4, strips 2-4, subject 3 (2nd test of Table 8)
  combined amount of Pal-KTTKS on tape strips: 88.18
passive, comparator of array 4, strips 5-7, Average
  combined amount of Pal-KTTKS on tape strips: 49.50
passive, comparator of array 4, strips 5-7, subject 1, 1st test
  combined amount of Pal-KTTKS on tape strips: 65.58
passive, comparator of array 4, strips 5-7, subject 1, 2nd test
  combined amount of Pal-KTTKS on tape strips: 35.35
passive, comparator of array 4, strips 5-7, subject 2, 1st test
  combined amount of Pal-KTTKS on tape strips: 46.95
passive, comparator of array 4, strips 5-7, subject 2, 2nd test
  combined amount of Pal-KTTKS on tape strips: 23.11
passive, comparator of array 4, strips 5-7, subject 3 (2nd test of Table 8)
  combined amount of Pal-KTTKS on tape strips: 76.52
passive, comparator of array 4, strips 8-10, Average
  combined amount of Pal-KTTKS on tape strips: 30.08
passive, comparator of array 4, strips 8-10, subject 1, 1st test
  combined amount of Pal-KTTKS on tape strips: 32.01
passive, comparator of array 4, strips 8-10, subject 1, 2nd test
  combined amount of Pal-KTTKS on tape strips: 21.64
passive, comparator of array 4, strips 8-10, subject 2, 1st test
  combined amount of Pal-KTTKS on tape strips: 25.51
passive, comparator of array 4, strips 8-10, subject 2, 2nd test
  combined amount of Pal-KTTKS on tape strips: 18.76
passive, comparator of array 4, strips 8-10, subject 3 (2nd test of Table 8)
  combined amount of Pal-KTTKS on tape strips: 52.45
passive, comparator of array 9, average of subjects
  combined amount of Pal-KTTKS on tape strips, Mean: 47.80
passive, comparator of array 9, subject 1
  combined amount of Pal-KTTKS on tape strips, Mean: 42.29
passive, comparator of array 9, subject 2
  combined amount of Pal-KTTKS on tape strips, Mean: 28.71
passive, comparator of array 9, subject 3
  combined amount of Pal-KTTKS on tape strips, Mean: 72.39
passive, comparator of array 9, strips 2-4, average of subjects
  combined amount of Pal-KTTKS on tape strips: 62.79
passive, comparator of array 9, strips 2-4, subject 1
  combined amount of Pal-KTTKS on tape strips: 69.89
passive, comparator of array 9, strips 2-4, subject 2
  combined amount of Pal-KTTKS on tape strips: 30.29
passive, comparator of array 9, strips 2-4, subject 3
  combined amount of Pal-KTTKS on tape strips: 88.18
passive, comparator of array 9, strips 5-7, average of subjects
  combined amount of Pal-KTTKS on tape strips: 50.50
passive, comparator of array 9, strips 5-7, subject 1
  combined amount of Pal-KTTKS on tape strips: 35.35
passive, comparator of array 9, strips 5-7, subject 2
  combined amount of Pal-KTTKS on tape strips: 39.62
passive, comparator of array 9, strips 5-7, subject 3
  combined amount of Pal-KTTKS on tape strips: 76.52
passive, comparator of array 9, strips 8-10, average of subjects
  combined amount of Pal-KTTKS on tape strips: 30.11
passive, comparator of array 9, strips 8-10, subject 1
  combined amount of Pal-KTTKS on tape strips: 21.64
passive, comparator of array 9, strips 8-10, subject 2
  combined amount of Pal-KTTKS on tape strips: 16.23
passive, comparator of array 9, strips 8-10, subject 3
  combined amount of Pal-KTTKS on tape strips: 52.45
uni-directional magnetic array #4
  delivery of Pal-KTTKS, active compared to passive application: significant enhanced delivery
